The results in this text go back to article PMC10284832, “Cyclic di-AMP traps proton-coupled K^+ transporters of the KUP family in an inward-occluded conformation” (Nature Communications, 2023).

The target in data set [1] is T1, KimA (Bacillus subtilis, UniProt P96589, N237A).
T1 construct: full-length membrane protein, homodimer with swapped cytosolic domains; plasmid pB24KimA, expressed in E. coli LB2003
The experiment in a line: differential scanning fluorometry (CPM dye). To be noted: c-di-AMP binding to variant; method inferred from the DSF section. (In general: Differential scanning fluorimetry follows unfolding on heating by fluorescence.)

The target of data set [2] is T2, KimA (Bacillus subtilis, UniProt P96589).
T2 construct: full-length membrane protein, homodimer with swapped cytosolic domains; plasmid pB24KimA, expressed in E. coli LB2003
T2 sequence (P96589 1-607): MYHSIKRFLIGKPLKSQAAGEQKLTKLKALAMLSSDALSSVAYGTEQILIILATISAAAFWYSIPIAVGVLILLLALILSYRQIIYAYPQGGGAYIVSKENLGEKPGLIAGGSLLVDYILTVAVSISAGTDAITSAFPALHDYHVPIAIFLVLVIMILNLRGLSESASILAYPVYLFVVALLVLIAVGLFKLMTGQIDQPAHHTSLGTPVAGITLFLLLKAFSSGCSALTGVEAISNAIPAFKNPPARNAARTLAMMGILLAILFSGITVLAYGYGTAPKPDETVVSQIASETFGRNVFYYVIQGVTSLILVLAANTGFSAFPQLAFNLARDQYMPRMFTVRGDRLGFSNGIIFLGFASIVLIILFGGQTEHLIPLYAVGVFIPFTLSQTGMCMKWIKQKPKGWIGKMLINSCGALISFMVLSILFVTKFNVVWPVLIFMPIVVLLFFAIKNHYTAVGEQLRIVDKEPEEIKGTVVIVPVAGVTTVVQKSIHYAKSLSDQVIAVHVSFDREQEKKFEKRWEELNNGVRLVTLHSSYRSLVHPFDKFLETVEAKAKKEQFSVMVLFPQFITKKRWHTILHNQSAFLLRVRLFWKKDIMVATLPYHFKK
The experiment in a line: differential scanning fluorometry (CPM dye). The data set is classed as binding. To be noted: three-fold molar excess c-di-AMP over KimA; KimA purified from cells co-producing CdaA, in DDM; shift fits 48.1 °C (KimA without CdaA) to 54.7 °C; text calls it a further increase although the CdaA sa.

For data set [3], the target named is T2, KimA. The experiment in a line: whole-cell K+ uptake in E. coli LB2003 (flame AAS). The data set is classed as cell-based. To be noted: c-di-AMP made in the cells by co-expressed CdaA (concentration unknown) versus inactive CdaA D171N; 200 mM HEPES TEA pH 7.5; allosteric site in cytosolic domain.
For data set [4], the target named is T3, KimA (Bacillus subtilis, UniProt P96589, R337A).
T3 construct: full-length membrane protein, homodimer with swapped cytosolic domains; plasmid pB24KimA, expressed in E. coli LB2003
T3 sequence (P96589 whole entry R337A, the tested form may be a part): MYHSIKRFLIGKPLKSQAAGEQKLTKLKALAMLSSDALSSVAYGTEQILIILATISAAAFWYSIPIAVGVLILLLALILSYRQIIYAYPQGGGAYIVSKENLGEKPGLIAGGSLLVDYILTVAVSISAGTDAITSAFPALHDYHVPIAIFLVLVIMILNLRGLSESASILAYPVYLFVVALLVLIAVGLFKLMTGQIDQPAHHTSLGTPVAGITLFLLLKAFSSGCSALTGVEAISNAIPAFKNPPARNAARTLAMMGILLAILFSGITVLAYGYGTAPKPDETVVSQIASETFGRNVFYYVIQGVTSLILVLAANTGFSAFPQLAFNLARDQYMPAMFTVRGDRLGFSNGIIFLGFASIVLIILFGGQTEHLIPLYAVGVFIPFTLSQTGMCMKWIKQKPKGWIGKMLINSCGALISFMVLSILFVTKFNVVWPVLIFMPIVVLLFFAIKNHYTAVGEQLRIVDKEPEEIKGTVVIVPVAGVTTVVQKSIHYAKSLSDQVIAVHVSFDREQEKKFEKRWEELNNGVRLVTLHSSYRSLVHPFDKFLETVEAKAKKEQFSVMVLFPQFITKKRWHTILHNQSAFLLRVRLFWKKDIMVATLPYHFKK
The experiment in a line: whole-cell K+ uptake in E. coli LB2003 (flame AAS). The data set is classed as cell-based. To be noted: c-di-AMP made in the cells by co-expressed CdaA (concentration unknown) versus inactive CdaA D171N; 200 mM HEPES TEA pH 7.5; allosteric site in cytosolic domain.

For data set [5], the target named is T2, KimA. The experiment in a line: cryo-EM structure ([…] Å in DDM, […] Å in amphipols). Format: binding. To be noted: two c-di-AMP per dimer, cytosolic domain sites; co-produced with CdaA; ten-fold molar excess added in DDM.
Data set [6] concerns the molecule itself. Kind of data set: cryo-EM structure; KimA in DDM at 4.0 mg/ml, purified after co-production with CdaA, ten-fold molar excess of c-di-AMP added after purification; 3.3 Å map with C2 symmetry.
Data set [7] deals with the molecule itself. The experiment in a line: cryo-EM structure; KimA reconstituted in amphipols (PMAL C8) at 2.25 mg/ml, purified after co-expression with cdaA; 50 mM NaCl, 50 mM KCl, 20 mM Tris-HCl pH 8; 3.8 Å map with C2 symmetry.

T1 sequence (P96589 whole entry N237A, the tested form may be a part): as the sequence (P96589 whole entry R337A, the tested form may be a part) above, with N237A, A337R counted along it

On to `Nc1ncnc2c1ncn2[C@@H]1O[C@@H]2COP(=O)(O)O[C@H]3[C@@H](O)[C@H](n4cnc5c(N)ncnc54)O[C@@H]3COP(=O)(O)O[C@H]2[C@H]1O` [c-di-AMP], for which the Tm result in data set [1] was “while binding of c-di-AMP was still possible”. The dTm in data set [2] stood at 6.6 °C. The “% reduction of Vmax” value in data set [3] was ~ 64%; in data set [4], ~ 44%. Also, in data set [5], the “cryo-EM structure (3.3 Å in DDM, 3.8 Å in amphipols)” value is given as “two non-protein densities in the CDs, which were modelled as c-di-AMP”.

B1: K+/H+ symporter KimA from B. subtilis, in DDM, with bound c-di-AMP (natural protein)
chain: MYHSIKRFLIGKPLKSQAAGEQKLTKLKALAMLSSDALSSVAYGTEQILIILATISAAAFWYSIPIAVGVLILLLALILSYRQIIYAYPQGGGAYIVSKENLGEKPGLIAGGSLLVDYILTVAVSISAGTDAITSAFPALHDYHVPIAIFLVLVIMILNLRGLSESASILAYPVYLFVVALLVLIAVGLFKLMTGQIDQPAHHTSLGTPVAGITLFLLLKAFSSGCSALTGVEAISNAIPAFKNPPARNAARTLAMMGILLAILFSGITVLAYGYGTAPKPDETVVSQIASETFGRNVFYYVIQGVTSLILVLAANTGFSAFPQLAFNLARDQYMPRMFTVRGDRLGFSNGIIFLGFASIVLIILFGGQTEHLIPLYAVGVFIPFTLSQTGMCMKWIKQKPKGWIGKMLINSCGALISFMVLSILFVTKFNVVWPVLIFMPIVVLLFFAIKNHYTAVGEQLRIVDKEPEEIKGTVVIVPVAGVTTVVQKSIHYAKSLSDQVIAVHVSFDREQEKKFEKRWEELNNGVRLVTLHSSYRSLVHPFDKFLETVEAKAKKEQFSVMVLFPQFITKKRWHTILHNQSAFLLRVRLFWKKDIMVATLPYHFKK
notes: KimA, K+/H+ symporter of the KUP family, Bacillus subtilis; expressed from pB24KimA; residues 30-606 are compared in the structures (TMD 30-462, cytosolic domain 462-606); Homodimer with swapped cytosolic domains; A ten-fold molar excess of c-di-AMP was added after purification; The construct has a C-terminal HRV-3C protease site; No cleavage is described for the DDM sample; also called KimA WT; …
Consider B1, for which the binding result in data set [6] is “binds”.

B2: K+/H+ symporter KimA from B. subtilis, reconstituted in amphipols, with bound c-di-AMP (natural protein)
chain: MYHSIKRFLIGKPLKSQAAGEQKLTKLKALAMLSSDALSSVAYGTEQILIILATISAAAFWYSIPIAVGVLILLLALILSYRQIIYAYPQGGGAYIVSKENLGEKPGLIAGGSLLVDYILTVAVSISAGTDAITSAFPALHDYHVPIAIFLVLVIMILNLRGLSESASILAYPVYLFVVALLVLIAVGLFKLMTGQIDQPAHHTSLGTPVAGITLFLLLKAFSSGCSALTGVEAISNAIPAFKNPPARNAARTLAMMGILLAILFSGITVLAYGYGTAPKPDETVVSQIASETFGRNVFYYVIQGVTSLILVLAANTGFSAFPQLAFNLARDQYMPRMFTVRGDRLGFSNGIIFLGFASIVLIILFGGQTEHLIPLYAVGVFIPFTLSQTGMCMKWIKQKPKGWIGKMLINSCGALISFMVLSILFVTKFNVVWPVLIFMPIVVLLFFAIKNHYTAVGEQLRIVDKEPEEIKGTVVIVPVAGVTTVVQKSIHYAKSLSDQVIAVHVSFDREQEKKFEKRWEELNNGVRLVTLHSSYRSLVHPFDKFLETVEAKAKKEQFSVMVLFPQFITKKRWHTILHNQSAFLLRVRLFWKKDIMVATLPYHFKK
notes: KimA, K+/H+ symporter of the KUP family, Bacillus subtilis; expressed from pB24KimA; released from the Ni-NTA beads by cleavage at the C-terminal HRV-3C protease site; Homodimer with swapped cytosolic domains, upright arrangement of the transmembrane domains; Residues of the 3C site probably remain at the C-terminus after cleavage; also called KimA in amphipols; not shown: His tag (from the …)
With B2, the binding result in data set [7] is given as “binds”.
